From publication PMC8294059, “Identification and Immune Assessment of T Cell Epitopes in Five Plasmodium falciparum Blood Stage Antigens to Facilitate Vaccine Candidate Selection and Optimization” (Frontiers in Immunology, 2021)
Where a SMILES comes first, the peptide text is derived from it.

Experiments:
Assay in all cases: biochemical
Type in all cases: binding
HLA-DRB1*0101 = molecular target: T1, HLA-DRB1*0101 (Homo sapiens, UniProt P01903+P01911, A100R/D57E/F55L/F60I/F76Y/I96L/L162R/M171V/P40L/Q125E/R42F/V115G/Y59C); conditions: binding inhibition assay; NB = non-binder (no dose-dependent inhibition); read-out: DRB1*0101 IC50
T1 construct: purchased
Experimental: (§1) The binding assay conducted by EpiVax yields an indirect measure of peptide-MHC affinity as it utilizes a competition assay format per the methodology described in Steere et al. ([35]). […] Post incubation, the mixtures are moved to a 96-well plate coated with anti-HLA-DR antibody to capture HLA-peptide complexes. Time-resolved fluorescence measurement of the bound labeled reference peptide complex present in each mixture is detected with a europium-linked probe via fluorescent spectrophotometry using a SpectraMax M5 system. HLA binding affinity of each test peptide is expressed as the percent inhibition of reference peptide binding. Percent inhibition values (across the test peptide titration range) are used to calculate the half maximal inhibitory concentration (IC50) of each test peptide. For these studies, test peptides were assessed using a range of final concentrations from 100,000 nM to 100 nM. The panel of commercially-available HLA-DRB1 allele monomers used includes: *0101, *0301, *0401, *0701, *0801, *1101, *1301 and *1501. EpiVax established HLA-DRB1 binding affinity cutoffs were used to rank the IC50 values.
(§2) In vitro HLA binding assays (step 2 of workflow shown in Figure 1 ) were carried out with the synthesized peptides to verify the EpiMatrix outputs and provide a measure of accuracy for comparing in silico-predicted HLA-DRB1 allele binding to laboratory assessments of HLA-DRB1 allele binding. These assessments were conducted using a competition assay format whereby IC50 values were calculated based on the ability of the test peptide to compete with a labeled, high binding affinity reference peptide for HLA-DRB1 molecule binding. Sequences for the high affinity reference peptides and the negative control peptide, known not to bind any of the HLA-DRB1 molecules, are provided in Table S18 .

HLA-DRB1*0401 = molecular target: T2, HLA-DRB1*0401 (Homo sapiens, UniProt P01903+P01911, A100K/A169T/F76Y/I96L/K127E/L162R/M171V/N62H/P40V/Q125Y/R42H/S133A/S149N/S66Y/V115G/V209L/W38E); conditions: binding inhibition assay; NB = non-binder (no dose-dependent inhibition); read-out: DRB1*0401 IC50
T2 construct: purchased
Experimental: as §1, §2

HLA-DRB1*0701 = HLA-DRB1*0701 (Homo sapiens, UniProt P01903+P01911, A100R/A102G/A103Q/D57E/D86V/E43K/F76Y/K127E/L162R/M171V/P40G/Q125H/Q99D/R33Q/R42Y/R54Q/S133A/S66F/T210M/V115G/Y107V/Y59L/Y89S); conditions: binding inhibition assay; NB = non-binder (no dose-dependent inhibition); read-out: DRB1*0701 IC50
Experimental: as §1, §2

HLA-DRB1*0801 = HLA-DRB1*0801 (Homo sapiens, UniProt P01903+P01911, A100R/A103L/A169T/D86S/F76Y/H45Y/I96F/K41T/L162R/M171V/P40S/Q125H/Q178H/Q39Y/Q99D/R218S/R42G/S66Y/V115G/W38E); conditions: binding inhibition assay; NB = non-binder (no dose-dependent inhibition); read-out: DRB1*0801 IC50
Experimental: as §1, §2

HLA-DRB1*1101 = HLA-DRB1*1101 (Homo sapiens, UniProt P01903+P01911, A100R/A169T/A87E/I96F/K41T/L162R/M171V/P40S/Q125H/Q178H/Q39Y/Q99D/R42S/S66Y/T262R/V115G/W38E); conditions: binding inhibition assay; NB = non-binder (no dose-dependent inhibition); read-out: DRB1*1101 IC50
Experimental: as §1, §2

HLA-DRB1*1301 = HLA-DRB1*1301 (Homo sapiens, UniProt P01903+P01911, A100E/A169T/K41T/L162R/M171V/P40S/Q125H/Q178H/Q39Y/Q99D/R42S/S66N/T262R/W38E/Y61H); conditions: binding inhibition assay; NB = non-binder (no dose-dependent inhibition); read-out: DRB1*1301 IC50
Experimental: as §1, §2

HLA-DRB1*1501 = molecular target: T3, HLA-DRB1*1501 (Homo sapiens, UniProt P01903+P01911); conditions: binding inhibition assay; NB = non-binder (no dose-dependent inhibition); read-out: DRB1*1501 IC50
T3 construct: purchased
Experimental: as §1, §2

Sequence of HLA-DRB1*1101 (P01903 26-254 limits assumed, other chains not shown): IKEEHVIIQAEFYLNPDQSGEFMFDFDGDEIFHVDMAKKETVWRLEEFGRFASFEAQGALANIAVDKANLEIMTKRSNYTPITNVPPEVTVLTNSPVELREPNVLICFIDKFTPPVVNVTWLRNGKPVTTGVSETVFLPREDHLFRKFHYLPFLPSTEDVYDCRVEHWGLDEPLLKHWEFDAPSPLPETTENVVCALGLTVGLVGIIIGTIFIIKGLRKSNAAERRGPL

Compound | IC50 (HLA-DRB1*0101) [µM] | IC50 (HLA-DRB1*0401) [µM] | IC50 (HLA-DRB1*0701) [µM] | IC50 (HLA-DRB1*0801) [µM] | IC50 (HLA-DRB1*1101) [µM] | IC50 (HLA-DRB1*1301) [µM] | IC50 (HLA-DRB1*1501) [µM]
CC[C@H](C)[C@H](NC(=O)[C@H](CCCCN)NC(=O)[C@H](CCCCN)NC(=O)[C@H](CCCCN)NC(=O)[C@H](CC(C)C)NC(=O)[C@H](Cc1ccc(O)cc1)NC(=O)[C@@H](NC(=O)[C@@H](NC(=O)[C@@H](NC(=O)[C@H](Cc1c[nH]cn1)NC(=O)[C@H](Cc1ccccc1)NC(=O)[C@@H](NC(=O)[C@H](CCC(=O)O)NC(=O)[C@H](CC(N)=O)NC(C)=O)[C@@H](C)CC)[C@@H](C)O)[C@@H](C)CC)[C@@H](C)CC)C(=O)NCC(=O)N[C@@H](CC(N)=O)C(=O)N[C@@H](CO)C(=O)N[C@H](C(=O)N[C@H](C(=O)N[C@@H](Cc1ccc(O)cc1)C(=O)N[C@@H](CC(=O)O)C(N)=O)[C@@H](C)CC)C(C)C [RIPR_019] (Ac-NEIFHTIIYLKKKIGNSVIYD-NH2) | 0.346 | 3.03 | 3.86 | 1.35 | 0.066 | 3.49 | 0.898
CC[C@H](C)[C@H](NC(=O)[C@H](CC(N)=O)NC(=O)[C@H](CCC(N)=O)NC(=O)[C@H](CC(N)=O)NC(=O)[C@H](CC(N)=O)NC(=O)[C@H](Cc1ccccc1)NC(=O)[C@@H](NC(=O)[C@H](CS)NC(=O)[C@H](CC(C)C)NC(=O)[C@H](Cc1ccc(O)cc1)NC(=O)[C@H](CC(=O)O)NC(=O)[C@@H](N)Cc1ccc(O)cc1)C(C)C)C(=O)N[C@H](C(=O)N[C@@H](CO)C(=O)N[C@@H](CC(=O)O)C(=O)N[C@@H](CCCCN)C(=O)N[C@@H](CC(N)=O)C(N)=O)[C@@H](C)O [RIPR_007] (H-YDYLCVFNNQNITSDKN-NH2) | 2.78 | 4.6 | 3.05 | 99 | 8.65 | 9.26 | 0.165
CSCC[C@H](N)C(=O)N[C@@H](CCCNC(=N)N)C(=O)N[C@@H](CCCCN)C(=O)N[C@@H](CC(C)C)C(=O)N[C@@H](Cc1ccc(O)cc1)C(=O)N[C@@H](CS)C(=O)N[C@H](C(=O)N[C@@H](CC(C)C)C(=O)N[C@@H](CC(C)C)C(=O)N[C@@H](CC(C)C)C(=O)N[C@@H](CO)C(=O)N[C@@H](C)C(=O)N[C@@H](Cc1ccccc1)C(=O)N[C@@H](CCC(=O)O)C(=O)N[C@@H](Cc1ccccc1)C(=O)N[C@H](C(=O)N[C@@H](Cc1ccc(O)cc1)C(N)=O)[C@@H](C)O)C(C)C [AMA1_001] (H-MRKLYCVLLLSAFEFTY-NH2) | 0.394 | 1.47 | 0.206 | 17.3 | 0.32 | 1.79 | 0.751
CC[C@H](C)[C@H](NC(=O)CNC(=O)[C@H](CCC(N)=O)NC(=O)[C@H](CO)NC(=O)[C@H](CO)NC(=O)[C@H](CO)NC(=O)[C@H](Cc1ccc(O)cc1)NC(=O)[C@@H](NC(=O)[C@H](Cc1ccccc1)NC(=O)[C@H](CC(C)C)NC(=O)[C@@H](NC(=O)[C@H](CCCNC(=N)N)NC(=O)[C@H](CC(N)=O)NC(=O)[C@H](CCC(=O)O)NC(=O)[C@H](CC(=O)O)NC(C)=O)[C@@H](C)O)[C@@H](C)CC)C(=O)N[C@@H](Cc1ccc(O)cc1)C(=O)N[C@@H](CC(N)=O)C(=O)N[C@H](C(=O)N[C@@H](Cc1c[nH]cn1)C(=O)N[C@H](C(N)=O)[C@@H](C)O)[C@@H](C)CC [CYRPA_008] (Ac-DENRTLFIYSSSQGIYNIHT-NH2) | 0.004 | 1.05 | 0.219 | 11.5 | 1.13 | 6.98 | 0.05
CC[C@H](C)[C@H](NC(=O)[C@H](Cc1ccc(O)cc1)NC(=O)[C@@H](NC(=O)[C@H](Cc1ccc(O)cc1)NC(=O)[C@H](CO)NC(=O)CNC(=O)[C@H](CCSC)NC(=O)[C@H](CCCCN)NC(=O)[C@H](CCCCN)NC(=O)[C@H](CC(N)=O)NC(=O)[C@H](CC(C)C)NC(=O)[C@H](CC(N)=O)NC(=O)[C@@H](NC(=O)[C@H](CC(C)C)NC(=O)[C@H](CC(C)C)NC(=O)[C@H](CC(C)C)NC(=O)[C@H](CCC(=O)O)NC(=O)[C@@H](N)CO)[C@@H](C)O)[C@@H](C)CC)C(N)=O [RH5_010B] (H-SELLLTNLNKKMGSYIYI-NH2) | 0.077 | 84 | 41.5 | 6.46 | 0.204 | 9.34 | 9.97
CC[C@H](C)[C@H](NC(=O)[C@H](CC(C)C)NC(=O)[C@H](Cc1c[nH]cn1)NC(=O)[C@H](Cc1ccccc1)NC(=O)[C@H](CCCCN)NC(=O)[C@H](CO)NC(=O)[C@H](CCCCN)NC(C)=O)C(=O)N[C@@H](CO)C(=O)N[C@@H](CCCNC(=N)N)C(=O)N[C@@H](CC(N)=O)C(=O)N[C@@H](CO)C(=O)N[C@@H](CCCNC(=N)N)C(=O)N[C@H](C(=O)N[C@@H](CC(N)=O)C(=O)N[C@@H](CCC(N)=O)C(=O)N[C@@H](Cc1ccc(O)cc1)C(N)=O)[C@@H](C)O [RIPR_009] (Ac-KSKFHLISRNSRTNQY-NH2) | 0.441 | 59.1 | – | 63.4 | 0.075 | 0.064 | 15.8
CC[C@H](C)[C@H](NC(=O)[C@H](Cc1ccccc1)NC(=O)[C@H](Cc1c[nH]cn1)NC(=O)[C@H](CC(=O)O)NC(C)=O)C(=O)N[C@@H](CCC(=O)O)C(=O)N[C@@H](C)C(=O)N[C@@H](CO)C(=O)N[C@@H](CCCCN)C(=O)N[C@@H](CCCCN)C(=O)N[C@@H](CCC(=O)O)C(=O)N[C@@H](CO)C(=O)N[C@@H](CCC(N)=O)C(=O)N[C@@H](CC(C)C)C(=O)N[C@@H](CC(C)C)C(N)=O [EBA175_006] (Ac-DHFIEASKKESQLL-NH2) | 6.63 | > 100 | – | 1.76 | 2.87 | 74.6 | –
CC[C@H](C)[C@H](NC(=O)[C@H](CC(=O)O)NC(=O)[C@@H]1CCCN1C(=O)[C@H](CC(C)C)NC(=O)[C@@H](NC(=O)[C@H](CO)NC(=O)[C@H](CO)NC(=O)[C@H](CC(N)=O)NC(=O)[C@H](Cc1ccc(O)cc1)NC(=O)[C@H](CC(C)C)NC(=O)[C@H](CO)NC(=O)[C@@H]1CCCN1C(=O)[C@@H](NC(=O)[C@H](CC(N)=O)NC(=O)[C@H](CO)NC(=O)[C@H](Cc1c[nH]cn1)NC(=O)[C@H](CC(C)C)NC(=O)[C@H](Cc1c[nH]cn1)NC(=O)[C@H](CO)NC(=O)[C@H](CC(N)=O)NC(=O)[C@H](CCCCN)NC(C)=O)[C@@H](C)CC)[C@@H](C)CC)C(=O)N[C@@H](CC(N)=O)C(=O)N[C@@H](CCCCN)C(=O)N[C@@H](CO)C(N)=O [RIPR_008] (Ac-KNSHLHSNIPSLYNSSILPDINKS-NH2) | 0.4 | 48.5 | 65.7 | 9.43 | 92.2 | – | 0.7
CC[C@H](C)[C@H](NC(=O)[C@H](CCCCN)NC(=O)CNC(=O)[C@@H](NC(=O)[C@H](CC(C)C)NC(=O)[C@H](CCCCN)NC(=O)[C@H](CCCNC(=N)N)NC(=O)[C@H](CC(N)=O)NC(=O)[C@H](CO)NC(=O)[C@H](CC(C)C)NC(=O)[C@H](CC(=O)O)NC(=O)[C@H](CC(N)=O)NC(=O)[C@H](Cc1c[nH]c2ccccc12)NC(=O)[C@H](Cc1ccc(O)cc1)NC(=O)[C@H](CC(=O)O)NC(=O)[C@@H](NC(=O)CNC(C)=O)[C@@H](C)O)C(C)C)C(=O)N[C@@H](CC(N)=O)C(=O)N[C@H](C(=O)N[C@@H](CC(N)=O)C(N)=O)[C@@H](C)O [EBA175_011] (Ac-GTDYWNDLSNRKLVGKINTN-NH2) | 0.462 | 52.7 | – | > 100 | 28.6 | > 100 | 54.2
